Assay results as given in ChEMBL document CHEMBL3399966, “Isosteric replacements of the carboxylic acid of drug candidate VX-787: Effect of charge on antiviral potency and kinase activity of azaindole-based influenza PB2 inhibitors” (Bioorg Med Chem Lett, 2015).

Legend:
[1] = system: Influenza A virus; assay: Antiviral activity against Influenza A virus A/PR/8/34 strain incubated with MDCK cells assessed as cell protection after 72 hrs by phenotypic cell protection assay; format: functional, organism-based; conditions: A/Puerto Rico/8/1934(H1N1)
[2] = system: Influenza A virus; assay: Antiviral activity against influenza A virus A/PR/8/34 strain incubated with MDCK cells assessed as reduction of viral RNA level equal to 1% of control level after 72 hrs by branched DNA assay; format: functional, organism-based; conditions: A/Puerto Rico/8/1934(H1N1)
[3] = biological target: Tyrosine-protein kinase JAK2 (Homo sapiens, UniProt O60674); assay: Inhibition of JAK2 (unknown origin)
[4] = biological target: Glycogen synthase kinase-3 (Homo sapiens, UniProt P49840+P49841); assay: Inhibition of GSK3 (unknown origin); format: protein assay
[5] = biological target: T1, Receptor-type tyrosine-protein kinase FLT3 (Homo sapiens, UniProt P36888); assay: Inhibition of FLT3 (unknown origin)
T1 sequence (P36888 whole entry): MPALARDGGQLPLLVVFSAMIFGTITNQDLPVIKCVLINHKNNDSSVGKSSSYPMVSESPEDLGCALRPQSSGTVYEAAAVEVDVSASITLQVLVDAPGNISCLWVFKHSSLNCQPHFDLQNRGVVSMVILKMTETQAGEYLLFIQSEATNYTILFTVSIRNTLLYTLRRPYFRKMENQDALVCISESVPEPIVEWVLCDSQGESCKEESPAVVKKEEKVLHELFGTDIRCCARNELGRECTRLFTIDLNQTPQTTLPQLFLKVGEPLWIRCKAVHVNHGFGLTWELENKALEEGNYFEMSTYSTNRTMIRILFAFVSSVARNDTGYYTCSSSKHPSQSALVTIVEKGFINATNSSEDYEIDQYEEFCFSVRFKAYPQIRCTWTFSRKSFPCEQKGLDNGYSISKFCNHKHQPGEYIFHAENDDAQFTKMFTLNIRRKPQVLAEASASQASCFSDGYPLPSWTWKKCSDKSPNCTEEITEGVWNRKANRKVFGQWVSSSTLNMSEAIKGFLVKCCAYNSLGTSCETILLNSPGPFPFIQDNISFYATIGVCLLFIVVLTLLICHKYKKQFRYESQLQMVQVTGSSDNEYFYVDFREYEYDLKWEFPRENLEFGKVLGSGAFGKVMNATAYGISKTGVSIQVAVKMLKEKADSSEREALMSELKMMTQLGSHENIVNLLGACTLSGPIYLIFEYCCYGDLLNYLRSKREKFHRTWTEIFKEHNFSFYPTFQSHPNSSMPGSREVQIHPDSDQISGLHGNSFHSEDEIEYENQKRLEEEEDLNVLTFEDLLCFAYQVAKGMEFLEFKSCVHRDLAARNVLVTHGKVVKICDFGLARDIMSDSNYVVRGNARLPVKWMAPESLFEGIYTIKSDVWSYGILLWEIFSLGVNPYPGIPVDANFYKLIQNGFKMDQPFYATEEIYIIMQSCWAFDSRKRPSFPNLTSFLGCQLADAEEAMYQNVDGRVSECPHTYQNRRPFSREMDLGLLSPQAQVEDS

[6] = biological target: Mitogen-activated protein kinase 10 (Homo sapiens, UniProt P53779); assay: Inhibition of JNK3 (unknown origin)
[7] = biological target: Rho-associated protein kinase (Homo sapiens, UniProt O75116+Q13464); assay: Inhibition of ROCK (unknown origin); format: protein-complex assay
[8] = biological target: Vascular endothelial growth factor receptor 2 (Homo sapiens, UniProt P35968); assay: Inhibition of KDR (unknown origin)
[9] = biological target: Proto-oncogene tyrosine-protein kinase Src (Homo sapiens, UniProt P12931); assay: Inhibition of SRC (unknown origin)
[10] = biological target: cAMP-dependent protein kinase catalytic subunit alpha (Homo sapiens, UniProt P17612); assay: Inhibition of PKAa (unknown origin)
[11] = biological target: T2, Interleukin-1 receptor-associated kinase 4 (Homo sapiens, UniProt Q9NWZ3); assay: Inhibition of IRAK4 (unknown origin)
T2 sequence (Q9NWZ3 whole entry): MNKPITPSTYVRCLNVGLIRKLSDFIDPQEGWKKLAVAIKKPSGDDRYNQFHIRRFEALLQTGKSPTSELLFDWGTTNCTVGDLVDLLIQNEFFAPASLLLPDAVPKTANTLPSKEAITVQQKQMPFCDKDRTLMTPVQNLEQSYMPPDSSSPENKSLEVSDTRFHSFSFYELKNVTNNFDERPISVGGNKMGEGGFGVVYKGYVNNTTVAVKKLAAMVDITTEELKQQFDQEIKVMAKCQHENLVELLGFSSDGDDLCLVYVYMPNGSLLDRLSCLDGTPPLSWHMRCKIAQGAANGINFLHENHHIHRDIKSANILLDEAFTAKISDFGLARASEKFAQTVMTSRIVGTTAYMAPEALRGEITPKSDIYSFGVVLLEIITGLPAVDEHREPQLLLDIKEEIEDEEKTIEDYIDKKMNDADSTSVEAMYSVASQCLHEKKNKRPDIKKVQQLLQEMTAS

[12] = biological target: Tyrosine-protein kinase SYK (Homo sapiens, UniProt P43405); assay: Inhibition of SYK (unknown origin)
[13] = biological target: Cyclin-dependent kinase 2 (Homo sapiens, UniProt P24941); assay: Inhibition of CDK2 (unknown origin)
[14] = biological target: Serine/threonine-protein kinase PLK1 (Homo sapiens, UniProt P53350); assay: Inhibition of PLK (unknown origin)
[15] = biological target: Hepatocyte growth factor receptor (Homo sapiens, UniProt P08581); assay: Inhibition of MET (unknown origin)
[16] = biological target: Phosphatidylinositol 4,5-bisphosphate 3-kinase catalytic subunit alpha isoform (Homo sapiens, UniProt P42336); assay: Inhibition of PI3Kalpha (unknown origin)
[17] = biological target: T3, Phosphatidylinositol 4,5-bisphosphate 3-kinase catalytic subunit delta isoform (Homo sapiens, UniProt O00329); assay: Inhibition of PI3Kdelta (unknown origin)
T3 sequence (O00329 whole entry): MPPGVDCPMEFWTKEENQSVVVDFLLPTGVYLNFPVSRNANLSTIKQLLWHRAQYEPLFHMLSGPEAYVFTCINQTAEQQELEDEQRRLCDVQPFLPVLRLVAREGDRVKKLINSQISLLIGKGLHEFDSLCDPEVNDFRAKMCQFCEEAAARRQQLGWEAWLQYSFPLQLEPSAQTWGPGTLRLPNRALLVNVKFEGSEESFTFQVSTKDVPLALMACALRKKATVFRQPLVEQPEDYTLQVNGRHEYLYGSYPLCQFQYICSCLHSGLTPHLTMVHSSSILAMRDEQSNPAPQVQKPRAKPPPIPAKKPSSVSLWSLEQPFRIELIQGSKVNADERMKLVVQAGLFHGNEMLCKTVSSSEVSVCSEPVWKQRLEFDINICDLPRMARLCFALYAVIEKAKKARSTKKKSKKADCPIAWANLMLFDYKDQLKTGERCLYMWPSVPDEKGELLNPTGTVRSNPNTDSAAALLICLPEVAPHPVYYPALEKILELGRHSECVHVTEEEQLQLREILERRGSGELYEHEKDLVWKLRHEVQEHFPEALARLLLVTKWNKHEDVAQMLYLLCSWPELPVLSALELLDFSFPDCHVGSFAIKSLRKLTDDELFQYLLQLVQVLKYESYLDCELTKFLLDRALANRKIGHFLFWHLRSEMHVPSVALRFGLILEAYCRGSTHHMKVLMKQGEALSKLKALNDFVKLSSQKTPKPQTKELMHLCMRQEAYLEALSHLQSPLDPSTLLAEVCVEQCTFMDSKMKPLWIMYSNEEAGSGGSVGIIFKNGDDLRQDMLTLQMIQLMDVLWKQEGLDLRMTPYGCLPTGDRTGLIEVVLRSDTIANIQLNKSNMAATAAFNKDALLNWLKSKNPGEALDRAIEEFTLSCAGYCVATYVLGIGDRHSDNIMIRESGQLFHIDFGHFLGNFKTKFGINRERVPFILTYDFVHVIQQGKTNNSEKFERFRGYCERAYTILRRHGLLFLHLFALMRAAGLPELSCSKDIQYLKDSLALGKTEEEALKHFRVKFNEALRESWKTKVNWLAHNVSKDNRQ

[18] = biological target: Phosphatidylinositol 4,5-bisphosphate 3-kinase catalytic subunit gamma isoform (Homo sapiens, UniProt P48736); assay: Inhibition of PI3Kgamma (unknown origin)
[19] = biological target: Phosphatidylinositol 4,5-bisphosphate 3-kinase catalytic subunit beta isoform (Homo sapiens, UniProt P42338); assay: Inhibition of PI3Kbeta (unknown origin)

Chain of Hepatocyte growth factor receptor (P08581 whole entry, canonical isoform): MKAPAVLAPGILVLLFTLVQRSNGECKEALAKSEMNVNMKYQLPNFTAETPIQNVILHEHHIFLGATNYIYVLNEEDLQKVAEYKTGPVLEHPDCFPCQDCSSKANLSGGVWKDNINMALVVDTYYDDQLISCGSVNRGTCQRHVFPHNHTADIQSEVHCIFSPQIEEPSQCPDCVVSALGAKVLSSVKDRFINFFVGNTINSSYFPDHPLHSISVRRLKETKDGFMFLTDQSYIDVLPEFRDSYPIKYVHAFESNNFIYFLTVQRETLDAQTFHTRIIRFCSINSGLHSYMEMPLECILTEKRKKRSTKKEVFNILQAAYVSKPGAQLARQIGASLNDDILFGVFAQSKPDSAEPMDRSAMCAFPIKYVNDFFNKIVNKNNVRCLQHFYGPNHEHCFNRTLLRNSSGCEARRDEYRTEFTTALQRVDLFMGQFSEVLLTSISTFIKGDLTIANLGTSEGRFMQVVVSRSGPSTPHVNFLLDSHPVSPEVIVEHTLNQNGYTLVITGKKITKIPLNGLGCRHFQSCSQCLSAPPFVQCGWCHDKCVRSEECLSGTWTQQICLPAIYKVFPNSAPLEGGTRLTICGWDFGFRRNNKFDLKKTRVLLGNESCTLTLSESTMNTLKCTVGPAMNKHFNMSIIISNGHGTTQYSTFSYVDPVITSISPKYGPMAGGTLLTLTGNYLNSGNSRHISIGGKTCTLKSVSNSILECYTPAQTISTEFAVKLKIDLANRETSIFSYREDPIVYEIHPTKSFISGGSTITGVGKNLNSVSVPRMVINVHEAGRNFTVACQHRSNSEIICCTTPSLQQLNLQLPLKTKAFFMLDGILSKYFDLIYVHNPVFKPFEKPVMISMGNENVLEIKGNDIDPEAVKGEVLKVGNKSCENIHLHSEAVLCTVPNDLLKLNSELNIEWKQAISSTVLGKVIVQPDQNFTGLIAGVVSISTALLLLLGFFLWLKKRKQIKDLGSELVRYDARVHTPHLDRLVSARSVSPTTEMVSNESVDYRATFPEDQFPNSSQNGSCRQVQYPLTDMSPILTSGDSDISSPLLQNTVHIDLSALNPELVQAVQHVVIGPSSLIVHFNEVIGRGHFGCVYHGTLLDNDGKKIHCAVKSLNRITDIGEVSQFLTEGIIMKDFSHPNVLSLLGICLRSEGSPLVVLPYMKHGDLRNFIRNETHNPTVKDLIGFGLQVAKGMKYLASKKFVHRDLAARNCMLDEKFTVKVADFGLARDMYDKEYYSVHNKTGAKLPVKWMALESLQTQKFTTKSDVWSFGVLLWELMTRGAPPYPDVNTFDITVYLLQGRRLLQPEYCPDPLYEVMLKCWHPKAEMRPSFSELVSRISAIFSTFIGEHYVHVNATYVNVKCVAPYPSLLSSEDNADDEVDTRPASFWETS
Chain of Mitogen-activated protein kinase 10 (P53779 whole entry): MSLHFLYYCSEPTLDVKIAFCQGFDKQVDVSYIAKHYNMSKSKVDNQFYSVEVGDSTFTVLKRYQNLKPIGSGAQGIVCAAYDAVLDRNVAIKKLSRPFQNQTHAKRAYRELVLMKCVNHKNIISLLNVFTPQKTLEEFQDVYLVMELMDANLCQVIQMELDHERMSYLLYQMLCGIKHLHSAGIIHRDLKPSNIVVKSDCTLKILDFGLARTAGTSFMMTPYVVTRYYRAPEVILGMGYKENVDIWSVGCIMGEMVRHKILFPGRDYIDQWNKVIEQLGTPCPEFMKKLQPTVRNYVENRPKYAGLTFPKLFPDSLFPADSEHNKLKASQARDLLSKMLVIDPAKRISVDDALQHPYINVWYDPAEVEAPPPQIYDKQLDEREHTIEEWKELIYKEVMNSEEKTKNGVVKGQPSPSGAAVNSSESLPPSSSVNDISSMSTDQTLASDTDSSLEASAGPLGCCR
Chain of Vascular endothelial growth factor receptor 2 (P35968 whole entry): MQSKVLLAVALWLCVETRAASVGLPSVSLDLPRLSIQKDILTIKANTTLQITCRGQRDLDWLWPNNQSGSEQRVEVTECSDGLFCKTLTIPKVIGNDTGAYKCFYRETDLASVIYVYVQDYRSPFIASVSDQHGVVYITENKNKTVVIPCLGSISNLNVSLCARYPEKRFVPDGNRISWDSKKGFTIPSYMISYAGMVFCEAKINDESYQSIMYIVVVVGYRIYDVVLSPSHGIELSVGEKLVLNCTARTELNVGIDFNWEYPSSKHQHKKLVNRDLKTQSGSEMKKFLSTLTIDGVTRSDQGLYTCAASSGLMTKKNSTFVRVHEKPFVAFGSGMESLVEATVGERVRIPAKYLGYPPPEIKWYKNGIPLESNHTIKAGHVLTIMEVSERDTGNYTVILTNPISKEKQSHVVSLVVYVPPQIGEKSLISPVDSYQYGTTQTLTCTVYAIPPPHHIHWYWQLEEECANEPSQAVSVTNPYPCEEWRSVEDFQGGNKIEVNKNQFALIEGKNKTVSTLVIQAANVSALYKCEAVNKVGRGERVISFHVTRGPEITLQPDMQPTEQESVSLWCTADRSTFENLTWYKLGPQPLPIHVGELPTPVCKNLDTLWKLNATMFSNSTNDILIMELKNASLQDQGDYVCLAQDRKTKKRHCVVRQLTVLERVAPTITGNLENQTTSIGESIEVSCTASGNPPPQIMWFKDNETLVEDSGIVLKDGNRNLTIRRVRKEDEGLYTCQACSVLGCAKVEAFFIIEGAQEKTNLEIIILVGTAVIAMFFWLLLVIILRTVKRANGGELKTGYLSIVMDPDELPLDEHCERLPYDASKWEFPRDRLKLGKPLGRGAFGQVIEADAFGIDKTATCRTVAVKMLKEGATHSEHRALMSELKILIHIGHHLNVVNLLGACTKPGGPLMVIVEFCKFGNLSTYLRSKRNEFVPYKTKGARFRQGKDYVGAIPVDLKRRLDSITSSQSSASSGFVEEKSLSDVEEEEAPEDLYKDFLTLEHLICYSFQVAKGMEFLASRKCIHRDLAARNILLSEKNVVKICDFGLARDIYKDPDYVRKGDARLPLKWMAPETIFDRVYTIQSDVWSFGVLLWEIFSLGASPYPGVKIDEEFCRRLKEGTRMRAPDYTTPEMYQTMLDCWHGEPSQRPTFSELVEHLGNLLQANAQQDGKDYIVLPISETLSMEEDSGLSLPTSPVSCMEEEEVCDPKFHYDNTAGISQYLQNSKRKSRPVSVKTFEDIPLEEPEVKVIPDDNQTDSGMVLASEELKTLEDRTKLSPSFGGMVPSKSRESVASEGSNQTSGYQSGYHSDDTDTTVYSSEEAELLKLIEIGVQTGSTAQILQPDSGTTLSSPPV
Chain of Phosphatidylinositol 4,5-bisphosphate 3-kinase catalytic subunit gamma isoform (P48736 whole entry, canonical isoform): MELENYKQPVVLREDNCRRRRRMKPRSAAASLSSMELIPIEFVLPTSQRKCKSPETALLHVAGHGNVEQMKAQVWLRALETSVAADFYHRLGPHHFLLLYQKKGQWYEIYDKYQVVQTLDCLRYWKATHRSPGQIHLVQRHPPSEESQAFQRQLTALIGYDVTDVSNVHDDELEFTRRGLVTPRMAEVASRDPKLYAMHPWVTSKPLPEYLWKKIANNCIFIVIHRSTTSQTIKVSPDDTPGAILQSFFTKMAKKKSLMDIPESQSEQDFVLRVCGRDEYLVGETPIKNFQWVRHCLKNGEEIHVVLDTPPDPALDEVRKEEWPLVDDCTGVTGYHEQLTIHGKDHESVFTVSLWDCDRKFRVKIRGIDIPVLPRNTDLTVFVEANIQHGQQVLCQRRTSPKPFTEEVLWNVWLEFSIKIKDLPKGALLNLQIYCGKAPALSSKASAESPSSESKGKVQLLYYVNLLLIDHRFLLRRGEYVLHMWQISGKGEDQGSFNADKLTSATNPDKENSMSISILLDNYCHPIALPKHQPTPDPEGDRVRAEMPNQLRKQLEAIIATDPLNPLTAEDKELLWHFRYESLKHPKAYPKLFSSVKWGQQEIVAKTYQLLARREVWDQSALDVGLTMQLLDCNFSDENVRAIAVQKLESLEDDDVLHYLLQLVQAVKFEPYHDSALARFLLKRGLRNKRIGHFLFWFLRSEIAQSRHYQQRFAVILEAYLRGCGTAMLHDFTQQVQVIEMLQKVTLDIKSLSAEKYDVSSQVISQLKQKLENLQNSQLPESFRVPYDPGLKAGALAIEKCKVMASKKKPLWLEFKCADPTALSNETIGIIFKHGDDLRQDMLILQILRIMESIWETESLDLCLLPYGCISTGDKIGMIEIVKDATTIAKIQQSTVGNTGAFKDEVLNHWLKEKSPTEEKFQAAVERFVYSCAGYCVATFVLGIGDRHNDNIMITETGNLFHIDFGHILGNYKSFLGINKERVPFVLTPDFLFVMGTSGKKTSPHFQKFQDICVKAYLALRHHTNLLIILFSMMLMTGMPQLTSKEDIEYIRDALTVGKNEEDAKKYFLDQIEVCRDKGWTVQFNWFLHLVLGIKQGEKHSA
Chain of Proto-oncogene tyrosine-protein kinase Src (P12931 2-536 limits assumed): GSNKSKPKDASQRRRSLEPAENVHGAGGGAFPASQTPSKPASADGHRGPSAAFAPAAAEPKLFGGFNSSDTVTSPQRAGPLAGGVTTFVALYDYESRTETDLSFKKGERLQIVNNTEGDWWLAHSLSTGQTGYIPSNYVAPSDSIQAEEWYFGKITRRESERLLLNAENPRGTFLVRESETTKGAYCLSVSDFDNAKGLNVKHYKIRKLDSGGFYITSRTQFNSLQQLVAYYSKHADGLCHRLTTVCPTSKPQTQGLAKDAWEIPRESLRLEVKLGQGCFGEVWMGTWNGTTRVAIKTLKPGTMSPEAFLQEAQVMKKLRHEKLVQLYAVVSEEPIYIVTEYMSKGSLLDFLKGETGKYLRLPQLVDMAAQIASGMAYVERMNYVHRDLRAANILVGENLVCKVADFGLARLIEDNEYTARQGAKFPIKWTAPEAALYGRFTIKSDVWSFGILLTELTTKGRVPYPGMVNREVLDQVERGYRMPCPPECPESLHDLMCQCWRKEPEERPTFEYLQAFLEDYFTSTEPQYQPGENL

Row | SMILES | IC50 [1] | EC50 [2] | EC99 [2] | Ki [3] | Ki [4] | Ki [5] | Ki [6] | Ki [7] | Ki [8] | Ki [9] | Ki [10] | Ki [11] | Ki [12] | Ki [13] | Ki [14] | Ki [15] | Ki [16] | Ki [17] | Ki [18] | Ki [19]
1 | NS(=O)(=O)[C@H]1C2CCC(CC2)[C@@H]1Nc1nc(-c2c[nH]c3ncc(F)cc23)ncc1F (mixture of isomers) | 6 nM | 6 nM | 0.064 µM | 840 nM | 0.085 µM | 1200 nM | > 4 µM | 0.98 µM | 1900 nM | 3.1 µM | 490 nM | > 4 µM | > 4 µM | > 4 µM | 2100 nM | > 4 µM | > 4 µM | 1.9 µM | 1100 nM | > 4 µM
2 | CC(=O)NS(=O)(=O)[C@H]1C2CCC(CC2)[C@@H]1Nc1nc(-c2c[nH]c3ncc(F)cc23)ncc1F (mixture of isomers) | 19 nM | 9 nM | 0.16 µM | > 4000 nM | 0.31 µM | 2800 nM | > 4 µM | > 4 µM | > 4000 nM | > 4 µM | > 4000 nM | > 4 µM | > 4 µM | > 4 µM | > 4000 nM | > 4 µM | > 4 µM | > 4 µM | 1500 nM | > 4 µM
3 | CC(O)[C@H]1C2CCC(CC2)[C@@H]1Nc1nc(-c2c[nH]c3ncc(F)cc23)ncc1F (mixture of isomers) | 310 nM | 490 nM | > 3.1 µM | 240 nM | 0.066 µM | 150 nM | > 4 µM | 0.31 µM | 2000 nM | 0.97 µM | > 4000 nM | 3.3 µM | > 4 µM | 1.2 µM | 1000 nM | > 4 µM | > 4 µM | > 4 µM | 780 nM | > 4 µM
4 | CS(=O)(=O)[C@H]1C2CCC(CC2)[C@@H]1Nc1nc(-c2c[nH]c3ncc(F)cc23)ncc1F (mixture of isomers) | 230 nM | 2 nM | 2.2 µM | 740 nM | 0.077 µM | 840 nM | > 4 µM | 2.7 µM | 1500 nM | 3.1 µM | 1500 nM | > 4 µM | > 4 µM | > 4 µM | > 4000 nM | > 4 µM | > 4 µM | 3.3 µM | 1200 nM | > 4 µM
5 | Fc1cnc2[nH]cc(-c3ncc(F)c(N[C@H]4C5CCC(CC5)[C@@H]4c4nnn[nH]4)n3)c2c1 (mixture of isomers) | 25 nM | 38 nM | 0.18 µM | > 4000 nM | > 4 µM | > 4000 nM | > 4 µM | > 4 µM | > 4000 nM | > 4 µM | > 4000 nM | > 4 µM | > 4 µM | > 4 µM | > 4000 nM | > 4 µM | 1.8 µM | > 4 µM | 2900 nM | > 4 µM
